# Values quoted from earlier work in patent US20120034276A1, “SOLID PREPARATION” (ASKA Pharmaceutical Co., Ltd., priority 2009, published 2012).
# Residues, ends and D or L forms follow the SMILES beside them.
# Details: numeral in parenthesis, for reference; first or second dissociation step
row,Structure (SMILES),acid dissociation constant pKa
1,NCC(=O)NC(Cc1c[nH]cn1)C(=O)NCC(=O)O (racemic) [glycyl-DL-histidylglycine],3.26
2,C[C@H](N)C(=O)N[C@@H](C)C(=O)O [L-alanyl-L-alanine] (H-Ala-Ala-OH),3.20
3,C[C@H](N)C(=O)NCC(=O)O [L-alanylglycine] (H-Ala-Gly-OH),3.10
4,N[C@@H](Cc1c[nH]cn1)C(=O)NCC(=O)O [L-histidylglycine] (H-His-Gly-OH),2.84
5,"CN(C)CC(=O)O [N,N-dimethylglycine]",2.08
6,Nc1ccc(C(=O)O)cc1 [aminobenzoic acid],2.02-3.12
7,N=C(N)NCCC[C@H](N)C(=O)O [arginine],2.05
8,N[C@@H](CC(=O)O)C(=O)O [aspartic acid],1.93
9,O=C(O)CC(O)(CC(=O)O)C(=O)O [citric acid],2.87
10,O=C(O)[C@H](O)[C@@H](O)[C@H](O)[C@H](O)CO [gluconic acid],3.86
11,N[C@@H](CCC(=O)O)C(=O)O [glutamic acid],2.18
12,O=C(O)CO [glycolic acid],3.63
13,NCC(=O)N[C@@H](Cc1c[nH]cn1)C(=O)O [glycyl-L-histidine] (H-Gly-His-OH),2.54
14,NCC(=O)NCC(=O)NCC(=O)N[C@@H](Cc1c[nH]cn1)C(=O)O [glycylglycylglycyl-L-histidine] (H-GGGH-OH),2.90
15,O=C(O)CC(O)C(=O)O (centres unmarked) [malic acid],3.24
16,O=[PH](O)O [phosphonic acid],1.5
17,CC(=O)C(=O)O [pyruvic acid],2.26
18,C[C@@H](O)[C@H](N)C(=O)O [threonine],2.21
19,CC(C)[C@H](N)C(=O)O [valine],2.26

# Next, values leading:
row,acid dissociation constant pKa,Structure (SMILES)
1,2.09,"O=C(O)c1cccc(C(=O)O)n1 [2,6-pyridinedicarboxylic acid]"
2,3.18,C[C@H](N)C(=O)NCC(=O)NCC(=O)NCC(=O)O [L-alanylglycylglycylglycine] (H-AGGG-OH)
3,2.20,CNCC(=O)O [N-methylglycine]
4,2.30,C[C@H](N)C(=O)O [alanine]
5,2.43,NC(=O)NCCC[C@H](N)C(=O)O [citrulline]
6,3.07,C[C@H](NC(=O)CN)C(=O)O [glycyl-L-alanine] (H-Gly-Ala-OH)
7,3.18,C[C@H](NC(=O)CNC(=O)CN)C(=O)O [glycylglycyl-L-alanine]
8,2.72,NCC(=O)NCC(=O)N[C@@H](Cc1c[nH]cn1)C(=O)O [glycylglycyl-L-histidine] (H-Gly-Gly-His-OH)
9,3.18,O=CC(=O)O [glyoxylic acid]
10,3.66,CC(O)C(=O)O (centres unmarked) [lactic acid]
12,2.04,NCCCC[C@H](N)C(=O)O [lysine]
13,2.15,CSCC[C@H](N)C(=O)O [methionine]
14,2.30,CCCC[C@H](N)C(=O)O [norleucine]
15,2.26,N[C@@H](Cc1ccccc1)C(=O)O [phenylalanine]
16,2.13,N[C@@H](CO)C(=O)O [serine]
17,4.00,O=C(O)CCC(=O)O [succinic acid]
18,2.82-2.99,O=C(O)C(O)C(O)C(=O)O (centres unmarked) [tartaric acid]
19,2.35,N[C@@H](Cc1c[nH]c2ccccc12)C(=O)O [tryptophan]
